Results from ChEMBL document CHEMBL1201862, “PubChem BioAssay data set” (2004).
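Assay format: 96-well plates, 48-hour exposure. GI50 marks 50% less growth.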 Calls of active or inactive are those of the source. No stated cut-off is given here; in the data, active = GI50 up to about 1.1 µM and inactive = higher.

Legend:
Test in all cases: DTP human tumour cell line panel, 48 h
ACHN = tested on: ACHN
DU-145 = tested on: DU-145
HCC 2998 = tested on: HCC 2998
HOP-62 = tested on: HOP-62
HOP-92 = tested on: HOP-92
IGROV-1 = tested on: IGROV-1
LOX IMVI = tested on: LOX IMVI
M14 = tested on: M14
MCF7 = tested on: MCF7
NCI-H23 = tested on: NCI-H23
NCI-H522 = tested on: NCI-H522
NCI/ADR-RES = tested on: NCI/ADR-RES
OVCAR-3 = tested on: OVCAR-3
OVCAR-4 = tested on: OVCAR-4
OVCAR-5 = tested on: OVCAR-5
RXF 393 = tested on: RXF 393
SF-295 = tested on: SF-295
SK-MEL-5 = tested on: SK-MEL-5
SNB-19 = tested on: SNB-19
SW-620 = tested on: SW-620

Measured: GI50

COc1cc2oc(-c3ccc4c(c3)OCO4)c(OC)c(=O)c2c(OC)c1O
inactive: ACHN 67.8 µM | DU-145 > 100 µM | HCC 2998 70.5 µM | HOP-62 57.4 µM | HOP-92 13.6 µM | IGROV-1 37.5 µM | LOX IMVI 32.7 µM | M14 > 100 µM | MCF7 69.7 µM | NCI-H23 > 100 µM | NCI-H522 21.9 µM | NCI/ADR-RES 66.8 µM | OVCAR-3 44.2 µM | OVCAR-4 59.3 µM | OVCAR-5 > 100 µM | RXF 393 > 100 µM | SF-295 41.7 µM | SK-MEL-5 25.4 µM | SNB-19 > 100 µM | SW-620 > 100 µM

O=C(OCC1CC(C2(O)CCCCC2)C(=O)O1)c1ccccc1 (stereo not given)
inactive: ACHN > 100 µM | DU-145 > 100 µM | HCC 2998 > 100 µM | HOP-62 > 100 µM | HOP-92 5.5 µM | IGROV-1 > 100 µM | LOX IMVI > 100 µM | M14 > 100 µM | MCF7 > 100 µM | NCI-H23 > 100 µM | NCI-H522 > 100 µM | NCI/ADR-RES > 100 µM | OVCAR-3 > 100 µM | OVCAR-4 > 100 µM | OVCAR-5 > 100 µM | RXF 393 > 100 µM | SF-295 > 100 µM | SK-MEL-5 > 100 µM | SNB-19 > 100 µM | SW-620 > 100 µM

Cc1cc2ccccc2oc(=O)/c1=N\Nc1ccccc1
inactive: ACHN 22.6 µM | DU-145 > 100 µM | HCC 2998 > 100 µM | HOP-62 19.3 µM | HOP-92 73.8 µM | IGROV-1 25.8 µM | LOX IMVI 60.1 µM | M14 > 100 µM | MCF7 83.2 µM | NCI-H23 78.5 µM | NCI-H522 65.5 µM | NCI/ADR-RES 32.3 µM | OVCAR-3 > 100 µM | OVCAR-4 48.1 µM | OVCAR-5 > 100 µM | RXF 393 35.2 µM | SF-295 32.6 µM | SK-MEL-5 84.1 µM | SNB-19 36.2 µM | SW-620 23 µM

COc1cc(OC)c(/C=N\Nc2nc3ccccc3c(=O)n2-c2ccccc2)c(OC)c1
inactive: ACHN 18.1 µM | DU-145 31.3 µM | HCC 2998 39.6 µM | HOP-62 19.4 µM | HOP-92 24.8 µM | IGROV-1 40.6 µM | LOX IMVI 23.2 µM | M14 27.3 µM | MCF7 > 47.1 µM | NCI-H23 58.5 µM | NCI-H522 26.6 µM | NCI/ADR-RES 19.9 µM | OVCAR-3 23.6 µM | OVCAR-4 28.8 µM | OVCAR-5 43.9 µM | RXF 393 23.7 µM | SF-295 25.6 µM | SK-MEL-5 26.2 µM | SNB-19 24 µM | SW-620 31 µM

Cn1c2ccccc2c2c(=S)c3ccccc3ccc21
inactive: ACHN > 100 µM | DU-145 88.9 µM | HCC 2998 > 100 µM | HOP-62 79.6 µM | HOP-92 > 100 µM | IGROV-1 81.8 µM | LOX IMVI 62.1 µM | M14 > 100 µM | MCF7 56.8 µM | NCI-H23 > 100 µM | NCI-H522 36.8 µM | NCI/ADR-RES > 100 µM | OVCAR-3 17.8 µM | OVCAR-4 44.6 µM | OVCAR-5 > 100 µM | RXF 393 > 100 µM | SF-295 76 µM | SK-MEL-5 44.6 µM | SNB-19 > 100 µM | SW-620 > 100 µM

O=C(O)CCCN/C(=C1\C(=O)C(=O)N(c2ccccc2)C1=O)c1ccccc1
inactive: ACHN > 100 µM | DU-145 > 100 µM | HCC 2998 > 100 µM | HOP-62 > 100 µM | HOP-92 > 100 µM | IGROV-1 > 100 µM | LOX IMVI > 100 µM | M14 > 100 µM | MCF7 > 100 µM | NCI-H23 > 100 µM | NCI-H522 > 100 µM | NCI/ADR-RES > 100 µM | OVCAR-3 > 100 µM | OVCAR-4 37.2 µM | OVCAR-5 > 100 µM | RXF 393 > 100 µM | SF-295 > 100 µM | SK-MEL-5 > 100 µM | SNB-19 > 100 µM | SW-620 > 100 µM

C[C@]12CC[C@@H]3c4ccc(O)cc4CC[C@H]3[C@@H]1CC[C@@H]2OC(=O)CCC1CCCC1 [ESTRADIOL CYPIONATE]
inactive: ACHN 23.8 µM | DU-145 13.7 µM | HCC 2998 19.8 µM | HOP-62 18.8 µM | HOP-92 23.1 µM | IGROV-1 17.6 µM | LOX IMVI 18 µM | M14 20.1 µM | MCF7 17.1 µM | NCI-H23 17.7 µM | NCI-H522 17.1 µM | NCI/ADR-RES 16.5 µM | OVCAR-3 16.4 µM | OVCAR-4 17.5 µM | OVCAR-5 26.2 µM | RXF 393 10.4 µM | SF-295 16.7 µM | SK-MEL-5 17.5 µM | SNB-19 16.9 µM | SW-620 20.9 µM
